Test results published in ChEMBL document CHEMBL3352106, “Phosphocalyculin C as a pyrophosphate protoxin of calyculin C in the marine sponge Discodermia calyx” (Bioorg Med Chem Lett, 2014).

Tested on: P388
Test: Cytotoxicity against mouse P388 cells assessed as reduction in cell viability
Type: functional, cell-based

Compound	IC50
COC[C@@H]([C@H](O)[C@H](O)C(=O)N[C@H](C)C[C@H](C)c1nc(/C=C/C[C@@H]2O[C@]3(C[C@@H](O)[C@@H]2C)O[C@H]([C@H](C[C@H](O)[C@H](C)[C@H](O)[C@H](C)/C=C(C)/C(C)=C/C=C/C(C)=C\C#N)OC)[C@H](OP(=O)(O)OP(=O)(O)O)C3(C)C)co1)N(C)C	36 nM
COC[C@@H]([C@H](O)[C@H](O)C(=O)N[C@H](C)C[C@H](C)c1nc(/C=C/C[C@@H]2O[C@]3(C[C@@H](O)[C@@H]2C)O[C@H]([C@H](C[C@H](O)[C@H](C)[C@H](O)[C@H](C)/C=C(C)/C(C)=C/C=C/C(C)=C\C#N)OC)[C@H](OP(=O)(O)O)C3(C)C)co1)N(C)C [CALYCULIN]	0.007 nM
